Legend:
Trypanosoma brucei = assay: Antikinetoplastid activity against Trypanosoma brucei gambiense assessed as parasite growth inhibition; assay type: functional, organism-based
RAW264.7 = assay: Cytotoxicity against mouse RAW264.7 cells assessed as reduction in cell viability up to 100 uM; assay type: cell-based
Leishmania donovani = assay: Antikinetoplastid activity against Leishmania donovani LV9 […] amastigotes in mouse RAW264.7 cells assessed as viability measured 24 hrs by SYBR green assay; assay type: functional, organism-based; details: LV9, RAW264.7, 24 h
[1] = Selectivity index, ratio of cytotoxicity against mouse RAW264.7 cells to IC50 for Trypanosoma brucei gambiense; assay type: toxicity, cell-based; details: read-out: Selectivity Index

Compound: CC(=O)NCCSCC(=O)NCCCNCCCCNCCCN.Cl
- IC50 (Trypanosoma brucei): 1.92 µM
- Activity (RAW264.7): Non-toxic
- IC50 (Leishmania donovani): > 100 µM
- selectivity ratio [1]: > 52

Compound: COCC(=O)NCCCCN(CCCNC(=O)OC(C)(C)C)C(=O)OC(C)(C)C
- IC50 (Trypanosoma brucei): > 100 µM
- Activity (RAW264.7): Non-toxic
- IC50 (Leishmania donovani): > 100 µM

Compound: CC(C)(C)OC(=O)NCCCCN
- IC50 (Trypanosoma brucei): > 100 µM
- Activity (RAW264.7): Non-toxic
- IC50 (Leishmania donovani): > 100 µM

Compound: COCC(=O)NCCCCN.Cl
- IC50 (Trypanosoma brucei): > 100 µM
- Activity (RAW264.7): Non-toxic
- IC50 (Leishmania donovani): > 100 µM

Compound: COCC(=O)NCCCNCCCCN.Cl
- IC50 (Trypanosoma brucei): > 100 µM
- Activity (RAW264.7): Non-toxic
- IC50 (Leishmania donovani): 5.47 µM

Compound: CC(C)(C)OC(=O)NCCCCN(CCCN)C(=O)OC(C)(C)C
- IC50 (Trypanosoma brucei): 11.6 µM
- Activity (RAW264.7): Non-toxic
- IC50 (Leishmania donovani): > 100 µM

Compound: CC(=O)NCCC(=O)NCCSCC(=O)NCCCNCCCCN.Cl
- IC50 (Trypanosoma brucei): 11.5 µM
- Activity (RAW264.7): Non-toxic
- IC50 (Leishmania donovani): > 100 µM

Compound: CC(C)(C)OC(=O)NCCCCN(CCC#N)C(=O)OC(C)(C)C
- IC50 (Trypanosoma brucei): > 100 µM
- Activity (RAW264.7): Non-toxic
- IC50 (Leishmania donovani): > 100 µM

Compound: COCC(=O)N(CCCCNC(=O)OC(C)(C)C)CCCNC(=O)OC(C)(C)C
- IC50 (Trypanosoma brucei): > 100 µM
- Activity (RAW264.7): Non-toxic
- IC50 (Leishmania donovani): > 100 µM

Compound: CC(=O)NCCSCC(=O)NCCCNCCCCN.Cl
- IC50 (Trypanosoma brucei): 14.8 µM
- Activity (RAW264.7): Non-toxic
- IC50 (Leishmania donovani): 70.8 µM

Compound: COCC(=O)N(CCCN)CCCCN.Cl
- IC50 (Trypanosoma brucei): > 100 µM
- Activity (RAW264.7): Non-toxic
- IC50 (Leishmania donovani): > 100 µM

Compound: COCC(=O)NCCCCNC(=O)OC(C)(C)C
- IC50 (Trypanosoma brucei): > 100 µM
- Activity (RAW264.7): Non-toxic
- IC50 (Leishmania donovani): > 100 µM

Compound: CC(C)(C)OC(=O)NCCCCNCCCNC(=O)OC(C)(C)C
- IC50 (Trypanosoma brucei): > 100 µM
- Activity (RAW264.7): Non-toxic
- IC50 (Leishmania donovani): > 100 µM

Compound: CC(=O)NCCSCC(=O)NCCCCNCCCN.Cl
- IC50 (Trypanosoma brucei): 5.75 µM
- Activity (RAW264.7): Non-toxic
- IC50 (Leishmania donovani): > 100 µM

Compound: N=C(N)c1ccc(OCCCCCOc2ccc(C(=N)N)cc2)cc1 [PENTAMIDINE]
- IC50 (Trypanosoma brucei): 0.011 µM
- IC50 (Leishmania donovani): 4.21 µM

Compound: CC(=O)NCCC(=O)NCCSCC(=O)NCCCNCCCCNCCCN.Cl
- IC50 (Trypanosoma brucei): 2.98 µM
- Activity (RAW264.7): Non-toxic
- IC50 (Leishmania donovani): > 100 µM

Compound: COCC(=O)NCCCCNCCCN.Cl
- IC50 (Trypanosoma brucei): 15.6 µM
- Activity (RAW264.7): Non-toxic
- IC50 (Leishmania donovani): 50 µM

Compound: CCCCCCCCCCCCCCCCOP(=O)([O-])OCC[N+](C)(C)C [MILTEFOSINE]
- IC50 (Leishmania donovani): 10.2 µM

Compound: COCC(=O)NCCCN(CCCCNC(=O)OC(C)(C)C)C(=O)OC(C)(C)C
- IC50 (Trypanosoma brucei): > 100 µM
- Activity (RAW264.7): Non-toxic
- IC50 (Leishmania donovani): > 100 µM

Source: ChEMBL document CHEMBL3352702, “Design, synthesis and in vitro antikinetoplastid evaluation of N-acylated putrescine, spermidine and spermine derivatives” (Bioorg Med Chem Lett, 2015)
